{"source": "patent US9108950B2", "about": "“1-pyrazolyl-3-(4-((2-anilinopyrimidin-4-yl)oxy)napththalen-1-yl) ureas as p38 MAP kinase inhibitors” (Respivert Ltd., priority 2011, dated 2015)", "key": {"[1]": {"system": "Cigarette Smoke Model", "experiment": "Cigarette smoke model", "assay_type": "in vivo, A/J mice", "settings": "1.75 μg/mouse (35 μL, bid, i.n.)", "procedure": "A/J mice (males, 5 weeks old) were exposed to cigarette smoke (4% cigarette smoke, diluted with air) for 30 min/day for 11 days using a Tobacco Smoke Inhalation Experiment System for small animals (Model SIS-CS; Sibata Scientific Technology, Tokyo, Japan). […] At 12 hr after the last dosing, each of the animals was anesthetized, the trachea cannulated and bronchoalveolar lavage fluid (BALF) was collected. The numbers of alveolar macrophages and neutrophils were determined by FACS analysis (EPICS® ALTRA II, Beckman Coulter, Inc., Fullerton, Calif., USA) using anti-mouse MOMA2 antibody (macrophage) or anti-mouse 7/4 antibody (neutrophil). BALF was centrifuged and the supernatant was collected. The level of keratinocyte chemoattractant (KC; CXCL1) in BALF was quantitated using a Quentikine® mouse KC ELISA kit (R&D systems, Inc., Minneapolis, Minn., USA)."}, "[2]": {"system": "LPS-induced neutrophil accumulation", "experiment": "LPS-induced neutrophil accumulation in mice", "assay_type": "in vivo, Balb/c mice", "settings": "1.75 μg/mouse", "procedure": "[…] At T=0, mice were placed into an exposure chamber and exposed to LPS (7.0 mL, 0.5 mg/mL solution in PBS) for 30 min). After a further 8 hr the animals were anesthetized, their tracheas cannulated and BALF extracted by infusing and then withdrawing from their lungs 1.0 mL of PBS via the tracheal catheter. Total and differential white cell counts in the BALF samples were measured using a Neubaur haemocytometer. Cytospin smears of the BALF samples were prepared by centrifugation at 200 rpm for 5 min at RT and stained using a DiffQuik stain system (Dade Behring). Cells were counted using oil immersion microscopy. Data for neutrophil numbers in BAL are shown as mean±S.E.M. (standard error of the mean). The percentage inhibition of neutrophil accumulation was calculated for each treatment relative to vehicle treatment."}, "[3]": {"system": "Differentiated U937 cells", "experiment": "Cell viability: MTT assay", "assay_type": "cell-based, human", "settings": "1 μg/mL", "procedure": "Differentiated U937 cells were pre-incubated with each test compound (final concentration 1 μg/mL or 10 μg/mL in 200 μL media indicated below) under two protocols: the first for 4 hr in 5% FCS RPMI1640 media and the second in 10% FCS RPMI1640 media for 24 h. The supernatant was replaced with new media (200 μL) and MTT stock solution (10 μL, 5 mg/mL) was added to each well. After incubation for 1 hr the media were removed, DMSO (200 μL) was added to each well and the plates were shaken lightly for 1 hr prior to reading the absorbance at 550 nm. The percentage loss of cell viability was calculated for each well relative to vehicle (0.5% DMSO) treatment. Consequently an apparent increase in cell viability for drug treatment relative to vehicle is tabulated as a negative percentage."}}}
{"smiles": "CCC(=O)O[C@]1(C(=O)SCF)[C@H](C)C[C@H]2[C@@H]3C[C@H](F)C4=CC(=O)C=C[C@]4(C)[C@@]3(F)[C@@H](O)C[C@@]21C", "note": "[Fluticasone Propionate, fluticasone propionate, reference compound]", "values": [{"measurement": "macrophage accumulation into airways", "setting": "[1]", "result": "did not inhibit"}, {"measurement": "neutrophil accumulation into airways", "setting": "[1]", "result": "did not inhibit"}, {"measurement": "inhibition of LPS-induced neutrophil accumulation", "setting": "[2]", "result": "> 80", "unit": "%"}]}
{"smiles": "COCC(=O)Nc1cc(Oc2ccc(NC(=O)Nc3cc(C(C)(C)C)nn3-c3ccc(C)cc3)c3ccccc23)ccn1", "note": "[Reference Compound, N-(4-(4-(3-(3-tert-butyl-1-p-tolyl-1H-pyrazol-5-yl)ureido)naphthalen-1-yloxy)pyridin-2-yl)-2-methoxyacetamide, reference compound]", "values": [{"measurement": "MTT Assay Cell viability in d-U937 Cells", "setting": "[3]; 4 h", "result": "−ve (−ve and +ve indicate the value is below and above respectively, the no significant effect threshold defined as 30% inhibition at 1 μg/mL at the time point indicated.)"}, {"measurement": "MTT Assay Cell viability in d-U937 Cells", "setting": "[3]; 24 h", "result": "+ve (−ve and +ve indicate the value is below and above respectively, the no significant effect threshold defined as 30% inhibition at 1 μg/mL at the time point indicated.)"}]}
